Laboratory results taken from patent US20210221848A1, “POLYMYXIN DERIVATIVES AND THEIR USE IN COMBINATION THERAPY TOGETHER WITH DIFFERENT ANTIBIOTICS” (priority 2014, published 2021).
Where two headings read alike, the source gives them in different places.

Key:
[1] = test system: A. baumanii strains with elevated MICs to Polymyxin B; assay: MIC against strains with elevated MICs to Polymyxin B; type: cell-based, Acinetobacter baumannii; conditions: Table 6D; for MIC A. baumannii 053: strain 053, elevated MIC to Polymyxin B; for MIC A. baumannii 056: strain 056, elevated MIC to Polymyxin B; for MIC A. baumannii 068: strain 068, elevated MIC to Polymyxin B; for MIC A. baumannii 070: strain 070, elevated MIC to Polymyxin B
Outline: (§1)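 Colonies picked from an 18-24 hour Mueller-Hinton agar plate are suspended directly and adjusted to 0.5 McFarland. Each MIC is run in duplicate. Values within 2-fold give the lower one; wider spread voids the assay; repeated testing yields the modal value.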

[2] = test system: E. coli strains with elevated MICs to Polymyxin B; assay: as above; type: cell-based, Escherichia coli; conditions: Table 6D; for MIC E. coli 058: strain 058, elevated MIC to Polymyxin B; for MIC E. coli 059: strain 059, elevated MIC to Polymyxin B; for MIC E. coli 060: strain 060, elevated MIC to Polymyxin B; for MIC E. coli 061: strain 061, elevated MIC to Polymyxin B
Outline: as §1

[3] = test system: K. pneumoniae strains with elevated MICs to Polymyxin B; assay: as above; type: cell-based, Klebsiella pneumoniae; conditions: Table 6D; for MIC K. pneumoniae 062: strain 062, elevated MIC to Polymyxin B; for MIC K. pneumoniae 063: strain 063, elevated MIC to Polymyxin B; for MIC K. pneumoniae 064: strain 064, elevated MIC to Polymyxin B; for MIC K. pneumoniae 655: strain 655, elevated MIC to Polymyxin B
Outline: as §1

[4] = test system: P. aeruginosa strains with elevated MICs to Polymyxin B; assay: MIC against strains with elevated MICs to Polymyxin B; type: cell-based, Pseudomonas aeruginosa; conditions: Table 6D; for MIC P. aeruginosa 065: strain 065, elevated MIC to Polymyxin B; for MIC P. aeruginosa 066: strain 066, elevated MIC to Polymyxin B; for MIC P. aeruginosa 067: strain 067, elevated MIC to Polymyxin B
Outline: as §1

[5] = absence of a second agent, Table 6B

Row | Substance | MIC A. baumannii 053 [1] [micrograms/mL] | MIC A. baumannii 056 [1] [micrograms/mL] | MIC A. baumannii 068 [1] [micrograms/mL] | MIC A. baumannii 070 [1] [micrograms/mL] | MIC E. coli 058 [2] [micrograms/mL] | MIC E. coli 059 [2] [micrograms/mL] | MIC E. coli 060 [2] [micrograms/mL] | MIC E. coli 061 [2] [micrograms/mL] | MIC K. pneumoniae 062 [3] [micrograms/mL] | MIC K. pneumoniae 063 [3] [micrograms/mL] | MIC K. pneumoniae 064 [3] [micrograms/mL] | MIC K. pneumoniae 655 [3] [micrograms/mL] | MIC P. aeruginosa 065 [4] [micrograms/mL] | MIC P. aeruginosa 066 [4] [micrograms/mL] | MIC P. aeruginosa 067 [4] [micrograms/mL] | MIC, E. coli ATCC 25922 (E. coli; sole activity, Table 6C) [micrograms/mL] | MIC, A. baumannii ATCC BAA-747 (A. baumannii; sole activity, Table 6C) [micrograms/mL] | MIC, A. baumannii NCTC 13424 (A. baumannii; sole activity, Table 6C) [micrograms/mL] | MIC, P. aeruginosa ATCC 27853 (P. aeruginosa; sole activity, Table 6C) [micrograms/mL] | MIC, P. aeruginosa CCUG 59347 (P. aeruginosa; sole activity, Table 6C) [micrograms/mL] | further results
1 | trans-4- octylpyrrolidine-3- carbonyl polymyxin B nonapeptide [Example D31] | >128 | 64 | 4 | 4 | 2 | 8 | 4 | 16 | 64 | >128 | 64 | >256 | 16 | 32 | >64 | – | – | – | – | – | MIC, E. coli ATCC 25922 (E. coli; [5]): 2 micrograms/mL; MIC, E. coli NCTC 13441 (E. coli; [5]): 1 micrograms/mL; MIC, A. baumannii ATCC BAA-747 (A. baumannii; [5]): 1 micrograms/mL; MIC, A. baumannii NCTC 13424 (A. baumannii; [5]): 2 micrograms/mL; MIC, P. aeruginosa ATCC 27853 (P. aeruginosa; [5]): 0.5 micrograms/mL; MIC, P. aeruginosa CCUG 59347 (P. aeruginosa; [5]): 1 micrograms/mL; MIC, K. pneumoniae ATCC 4352 (K. pneumoniae; [5]): 0.5 micrograms/mL
2 | trans-4- octylpyrrolidine- 3-carbonyl L-Thr- L-Dap-polymyxin B heptapeptide [Example D89] | 8 | 4 | 0.5 | 0.5 | 1 | 1 | 0.5 | 2 | 8 | 4 | 1 | 8 | 0.5 | 1 | 16 | 0.5 | 0.5 | 0.5 | 0.5 | 1 | MIC, E. coli NCTC 13441 (E. coli; sole activity, Table 6C): 0.125 micrograms/mL; MIC, K. pneumoniae ATCC BAA-2146 (K. pneumoniae; K. pneumoniae ATCC BAA-2146, sole activity, Table 6C): 0.5 micrograms/mL
3 | trans-5- cyclohexyl- piperidine-3- carbonyl L-Thr-L- Dap-polymyxin E heptapeptide [Example D86] | 16 | 50.25 | 1 | 2 | 0.5 | 1 | 1 | 4 | 1 | 8 | 1 | 4 | 0.5 | 0.25 | 32 | 0.125 | 0.03 | 0.06 | 0.25 | 0.5 | MIC, K. pneumoniae ATCC 4352 (K. pneumoniae; sole activity, Table 6C): 0.03 micrograms/mL
